Results as given in patent publication US20220008411A1, “TOLL-LIKE RECEPTOR 7 OR 8 AGONIST-CHOLESTEROL COMPLEX AND METHOD OF PREPARING SAME” (RESEARCH & BUSINESS FOUNDATION SUNGKYUNKWAN UNIVERSITY, priority 2019, published 2022).

Assays:
[1] = system: bone marrow-derived dendritic cells (BMDCs) or bone marrow-derived macrophages (BMDMs); assay: activation of immune cells, cleavable vs uncleavable complex (ELISA); type: cell-based; conditions: given as liposome, 24 hours
Experimental: Degree of activation of immune cells was confirmed using the cholesterol-resiquimod complex, in which cholesterol is not cleaved at a specific point of time as a control. […] In addition, a liquid culture was obtained, centrifuged at 490 g for 5 minutes, thereby obtaining only a supernatant, and ELISA was carried out using a BD OptEIA™ kit.

carboxylesterase = conditions: nanoliposome, 30 units of carboxylesterase, 37° C.
[2] = toxicity in vivo (serum cytokine, body weight); parameters: species or system C57BL/6 mouse; conditions: 25 μg/100 μL subcutaneous
Experimental: In addition, the collected blood was centrifuged (4° C., 13,000 rpm, 20 min) to separate serum and blood cells, and a cytokine amount was measured through ELISA using the serum.

[3] = system: B16-OVA melanoma cell line; assay: anticancer effect with OVA antigen in B16-OVA melanoma model; conditions: intratumoral injection on day 0, 3, 6 and 9
Experimental: More specifically, 5×10^5 cells of a B16-OVA cell line were subcutaneously injected into the right flank of a C57BL/6 mouse, and the time when a tumor size reached approximately 50 mm^3 was set to day 0, each of phosphate-buffered saline (control), an OVA antigen (OVA), resiquimod+OVA antigen (R848+OVA), and a nanoliposome including a cholesterol-resiquimod complex, +OVA antigen (Lipo(Chol-R848)+OVA) were administered into a mouse through intratumoral injection on day 0, 3, 6 and 9. 10 μg of the OVA antigen was administered, 25 μg of resiquimod was administered, and 25 μg (based on resiquimod) of the nanoliposome including the cholesterol-resiquimod complex was administered. In addition, a mouse survival rate and a cancer size were measured.

For CCOCc1nc2c(NC(=O)OC3CCC4(C)C(=CCC5C4CCC4(C)C(C(C)CCCC(C)C)CCC54)C3)nc3ccccc3c2n1CC(C)(C)O (stereo not drawn) [Chol-R848, cholesterol-conjugated resiquimod], which “activation of immune cells” value [1] is on record?
Its value is “effectively activates immune cells”.

And the “cholesterol cleavage by enzyme” value (carboxylesterase)?
Its value is “cleaved”.

For CCOCc1nc2c(N)nc3ccccc3c2n1CC(C)(C)O [resiquimod], which body weight [2] is on record?
The body weight was “dramatically changing a body weight”.

And the “cytokine amount in serum” value [2]?
The value was “rapidly increased in serum at an early stage”.

B1: OVA antigen: ovalbumin (OVA) antigen (protein, UniProt P01012 2-386, looked up)
Ovalbumin: GSIGAASMEFCFDVFKELKVHHANENIFYCPIAIMSALAMVYLGAKDSTRTQINKVVRFDKLPGFGDSIEAQCGTSVNVHSSLRDILNQITKPNDVYSFSLASRLYAEERYPILPEYLQCVKELYRGGLEPINFQTAADQARELINSWVESQTNGIIRNVLQPSSVDSQTAMVLVNAIVFKGLWEKAFKDEDTQAMPFRVTEQESKPVQMMYQIGLFRVASMASEKMKILELPFASGTMSMLVLLPDEVSGLEQLESIINFEKLTEWTSSNVMEERKIKVYLPRMKMEEKYNLTSVLMAMGITDVFSSSANLSGISSAESLKISQAVHAAHAEINEAGREVVGSAEAGVDAASVSEEFRADHPFLFCIKHIATNAVLFFGRCVSP
What does the source list for B1?
mouse survival [3]: no mouse surviving three weeks or more; cancer size ([3]; 10 μg OVA, 25 μg resiquimod basis): dramatically increased
